Data published in patent US9085642B2, “Peptide inhibiting rankl-rank interaction and the use thereof” (RESEARCH & BUSINESS FOUNDATION SUNGKYUNKWAN UNIVERSITY, priority 2013, dated 2015).
Entries after “also recorded” stand apart in the source; their conditions may differ. Bridge positions count the residues as written; N and C are the ends. Ends that are not written are not given here.

System: osteoclast precursors
Assay: Osteoclast differentiation by RANKL, TRAP assay and count of TRAP-positive multinucleated cells
Format: cell-based, rat
Conditions: RANKL-induced differentiation, peptides treated by concentrations, TRAP assay, FIGS. 6B and 7
Protocol: That is, osteoclast precursors of rats were extracted from tibia and the femoral region of 5 to 8-week male rats, and purified. The osteoclast precursors were cultured in α-MEM containing 30 ng/ml of M-CSF and 10% FBS in 96-well plates (1×10^5/ml, 200 μl/well). The cells were cultured at 37° C. in a wet atmosphere containing 5% CO2. Differentiation of the osteoclast precursors were measured by a value of tartrate-resistant acid phosphatase (TRAP) activity in vitro. The TRAP staining assay was performed using a matrix Naphthol AS phosphate in 100 mM sodium acetate (pH 5.2). TRAP-positive multinucleated cells were calculated as osteoclast-like multinucleated cells using a microscope, and the assay described above were repeated three times to obtain statistical data.
In the condition of differentiating osteoclasts by the RANKL, 5 peptides (L3-3, L3-3S, L3-3N, L3-3A, and L3-3B) manufactured in Example 5 were treated by concentrations to observe a degree of inhibition, and the results are shown in FIGS. 6 and 7.

With “Ser-Asp-Cys-Glu-Cys-Ser-Arg-Arg (SDCECSRR; disulfide 3-5) [L3-3B]” the “inhibitory effect on osteoclast differentiation” value was “better effects than conventionally disclosed peptides (L3-3 and L3-3S); also recorded: extraordinarily higher inhibitory effect than L3-3A”.
